The source of these data is patent US10815183B2, “Substituted aromatic compounds and pharmaceutical uses thereof” (PROMETIC PHARMA SMT LIMITED, priority 2009, dated 2020).

Series [1] in a line: Heart protection in 5/6 nephrectomized rats, blood pressure. It counts as in vivo. The conditions noted are these: Nx rats (FIG. 7). The source says: (§1) Male 6 week-old Wistar rats were subjected to ⅚ nephrectomy or sham operations. Under fluothane anesthesia, renal ablation was achieved by removing two-thirds of the left kidney followed by a right unilateral nephrectomy 7 days later. Sham rats underwent exposition of the kidneys and removal of the perirenal fat. Twenty-one days after the first operation, rats were randomized in the study by their reduced glomerular filtration rate (GFR) of creatinine indicating a dysfunction of the kidney. Animals that underwent the sham operation were given vehicle (saline) and were used as controls. Nx animals were divided in groups receiving the vehicle or Compound I. Saline or Compound I was given by gastric gavage once daily up to the sacrifice. GFR was measured every three weeks in order to assess the severity of this end-stage renal disease model. Rats were sacrificed at day 190.

The test system of series [2] is CTGF. Type of series: in vivo, C57Bl/6 mice. The conditions noted are these: pre-treatment, doxorubicin-treated mice (FIG. 12). The protocol:
(§2) C57Bl/6 mice (6-10 week-old) were treated with Compound I prophylacticly from day −3 to day 10 or treated therapeutically from day 1 to 10. Nephrotoxicity was induced by an intravenous injection of 10 mg/kg of doxorubicin at day 0. Serum albumin and creatinine were monitored at days 4, 7, 9 and 11.

The test system of series [3] is bone marrow cells. Kind of series: Chemoprotection studies: bone marrow and blood cell counts in cyclophosphamide immunosuppressed mice (hematopoiesis/erythropoiesis). It counts as in vivo, C57BL/6 mice. The conditions noted are these: for In Vivo Results: effect on hematopoiesis/erythropoiesis: degree of activity compared to the activity of compound I; for Red Blood Cells (10^9) / Red Bone Marrow Cells (10^6): mice, cyclophosphamide 200 mg/kg iv day 0, compound oral pre-treatment day -3, -2, -1, sacrifice day +5. The protocol:
Female C57BL/6 mice, 6 to 8 week old, were immunosuppressed by treatment with 200 mg/kg of cyclophosphamide administered intravenously at day 0. To examine the immunoprotective effect of compound I, mice were pre-treated orally at day −3, −2 and −1 with the compound. Mice were sacrificed at day +5 by cardiac puncture and cervical dislocation. Then, a gross pathological observation of the femurs (as a source of bone marrow cells) was recorded. After the sacrifice, tissues were crushed in PBS buffer and cells were counted on a hemacytometer.
Additional compounds related to compound I were also prepared and tested for biological activity.

A short description of series [4]: Kidney protection in 5/6 nephrectomized (Nx) rat model, GFR (creatinine clearance). It counts as in vivo, Wistar rats.
Description: as §1

The subject of series [5] is TGF-β. Kind of series: TGF-β mRNA expression in kidneys from doxorubicin-treated mice. It counts as in vivo, C57Bl/6 mice. The protocol: as §2
CTGF is also regulated by TGF-β. FIG. 13 illustrates the mRNA expression of TGF-β in kidneys. Doxorubicin increases by 73% the mRNA expression of TGF-β in kidneys. Pre-treatment with Compound I induces a 26% decrease of TGF-β expression.

Series [6] relates to PGE2. Description: LPS-induced inflammation in the rat air-pouch model, PGE2 in pouch exudates by ELISA. It counts as in vivo, Lewis rats. The source says:
LPS-induced inflammation in the rat air-pouch model is believed to mimic the pathological process occurring in joint diseases such as arthritis. This is because the connective tissues formed along the air pouch are similar to those found in chronic joint diseases. LPS-induced inflammation and chronic joint diseases share other features, including markedly elevated PGE2, neutrophil infiltration, cytokine formation, and tissue damage.
An air cavity was produced at day −6 by subcutaneous injection of 20 ml of sterile air into the […] area of the back of male Lewis rats (175-200 g). An additional 10 ml of air was injected into the cavity at day −3 to keep the space open. At day 0, compounds were administered intravenously and one hour later lipopolysaccharide (LPS: 2.5 ml, 2 μg/ml in PBS) was injected into the pouch to produce an inflammatory reaction. Two hours after treatment with LPS, animals were euthanized by CO2 asphyxiation and 5 ml of PBS/heparin (10 U/ml)/indomethacin (36 μg/ml) was injected into the pouch. The pouch fluid was collected and PGE2 was determined in the pouch exudates by ELISA.
For orientation: An ELISA detects its analyte on a solid surface through an enzyme-linked reagent.

Series [7] can be described thus: Doxorubicin-induced nephrotoxicity model: serum albumin, serum creatinine, histological kidney lesions. Type of series: in vivo, C57Bl/6 mice. Conditions: for serum creatinine increase induced by doxorubicin: mice (FIG. 9). The protocol: as §2
Doxorubicin is well known to induce nephro- and cardiotoxicity. FIG. 10 represents the histological kidney lesions score as determined by histochemistry in the doxorubicin-induced nephrotoxicity model.
Doxorubicin induces early lesions primarily at the tubular region. Toxicity is further extended to the glomerulus (around day 11 post-doxorubicin). FIG. 11 represents the histological micrographs of doxorubicin-induced lesions in control and Compound I-treated (prophylactic treatment) mice. Doxorubicin induces kidney cell apoptosis, fibrosis, sclerosis and accumulation of proteins in affected tubular regions.

Turning to `CCCCCc1cccc(CC(=O)[O-])c1.[Na+]` [Compound I, Sodium Salt of 3-Pentylphenylacetic Acid], in series [1], the blood pressure result is recorded as “significant decrease”. Also, the “CTGF expression in kidneys” value in series [2] was “significant decrease”. Further, in series [3] (cyclophosphamide immunosuppressed mice), the “circulating red blood cells (in words)” value is recorded as “increases”. Besides, in series [3], the “In Vivo Results: effect on hematopoiesis/erythropoiesis” value is on record as “+++ (+++ designates 70 to 100% of compound I activity)”, the “Red Blood Cells (10^9)” value is reported as 7.0 10^9 and the “Red Bone Marrow Cells (10^6)” value is on record as 11.5 10^6. Also, in series [3] (oral pre-treatment, cyclophosphamide immunosuppressed mice), the “red bone marrow cell count (in words)” value is given as “increase”. In addition, the “white bone marrow cell count” value in series [3] (oral pre-treatment, cyclophosphamide immunosuppressed mice (FIG. 2)) was “increase”. Moreover, the “total bone marrow cell count” value in series [3] (oral pre-treatment, cyclophosphamide treated mice (FIG. 1)) is “significant increase”. Further, in series [4] (Nx rats over treatment period, Nx control 50% deterioration (FIG. 6)), the “improvement of GFR compared to initial GFR (before treatment) at day 21” value was 50%. Besides, the “improvement of GFR (creatinine clearance)” value in series [4] (Nx rats, gastric gavage once daily, day 190 (FIG. 5)) is reported as “two-fold”. For the same compound, in series [5] (pre-treatment, doxorubicin-treated mice (FIG. 13)), the “decrease of TGF-β expression in kidneys” value is 26%. Besides, the “inhibition of PGE2 compared with positive control indomethacin” value in series [6] (two hours after LPS) is reported as “similar”. In addition, the “inhibition of PGE2” value in series [6] (two hours after administration of LPS (FIG. 3)) is on record as “significant inhibition”. Besides, in series [7] (prophylactic (pre-doxorubicin) and therapeutic (post-doxorubicin) treatments (FIG. 10)), the “histological kidney lesions at the tubular level induced by doxorubicin” value is recorded as “reduce the kidney lesions”. For the same compound, in series [7] (prophylactic or therapeutic treatment (FIG. 11)), the “protection of the kidney against doxorubicin toxicity (histological micrographs)” value is listed as “protects the kidney”. The “serum albumin decrease induced by doxorubicin” value in series [7] (prophylactic treatment day -3 to day 10, oral, mice (FIG. 8)) is “inhibits the decrease”. In addition, in series [7] (prophylactic treatment day -3 to day 10, oral), the “serum creatinine increase induced by doxorubicin” value is “inhibits the increase”. Also, the “serum albumin level induced by doxorubicin” value in series [7] (therapeutic treatment day 1 to 10, oral, mice (FIG. 8)) is listed as “no effect”. Further, the “serum creatinine increase induced by doxorubicin” value in series [7] (therapeutic treatment day 1 to 10, oral) is “inhibits the increase”.

With `CCC/C=C/c1cccc(CC(=O)[O-])c1.[Na+]` [Compound II, Sodium Salt of E-(3-pent-1-enyl-phenyl)acetic Acid], the “In Vivo Results: effect on hematopoiesis/erythropoiesis” value in series [3] was “+++ (+++ designates 70 to 100% of compound I activity)”.

Turning to `CCCCCc1ccc(O)c(CC(=O)[O-])c1.[Na+]` [Compound III, Sodium salt of (2-hydroxy-5-pentylphenyl)acetic Acid], the “In Vivo Results: effect on hematopoiesis/erythropoiesis” value in series [3] is “+ (+ designates 5-40% of compound I activity)”.

As for `CCCCCc1cc(CCC(=O)[O-])ccc1F.[Na+]` [Compound IV, Sodium Salt of 3-(4-fluoro-3-pentylphenyl)propionic Acid], in series [3], the “In Vivo Results: effect on hematopoiesis/erythropoiesis” value is “+++ (+++ designates 70 to 100% of compound I activity)”.

In the case of `CCCCc1cccc(CCC(=O)[O-])c1.[Na+]` [Compound IX, Sodium Salt of 3-(3-butylphenyl)propionic Acid], in series [3], the “In Vivo Results: effect on hematopoiesis/erythropoiesis” value is on record as “++ (++ designates 40-70% of compound I activity)”.

With `CCCCCc1cccc(CCC(=O)[O-])c1.[Na+]` [Compound V, Sodium Salt of 3-(3-pentylphenyl)propionic Acid], in series [3], the “In Vivo Results: effect on hematopoiesis/erythropoiesis” value was “++ (++ designates 40-70% of compound I activity)”.

Consider `CCCCCc1cccc(C(C)(C)C(=O)[O-])c1.[Na+]` [Compound VI, Sodium Salt of 2-Methyl-2-(3-pentylphenyl)propionic Acid], for which the “In Vivo Results: effect on hematopoiesis/erythropoiesis” value in series [3] is given as “++ (++ designates 40-70% of compound I activity)”.

Take `CCCCCc1cccc(C(CO)C(=O)[O-])c1.[Na+]` (stereo not drawn) [Compound VII, Sodium Salt of 3-Hydroxy-2-(3-pentyl-phenyl)propionic Acid]: in series [3], the “In Vivo Results: effect on hematopoiesis/erythropoiesis” value was “+++ (+++ designates 70 to 100% of compound I activity)”.

Consider `CCCCCc1cccc(C(C)C(=O)[O-])c1.[Na+]` (stereo not drawn) [Compound VIII, Sodium Salt of 2-(3-pentylphenyl)propionic Acid], for which the “In Vivo Results: effect on hematopoiesis/erythropoiesis” value in series [3] is given as “++ (++ designates 40-70% of compound I activity)”.

As to `C/C=C\CCc1cccc(CC(=O)[O-])c1.[Na+]` [Compound X, Sodium Salt of E/Z-(3-Pent-3-enylphenyl)acetic Acid], the “In Vivo Results: effect on hematopoiesis/erythropoiesis” value in series [3] is recorded as “+++ (+++ designates 70 to 100% of compound I activity)”.

In the case of `CCCCCc1cc(O)cc(CC(=O)[O-])c1.[Na+]` [Compound XI, Sodium Salt of [3-Hydroxy-5-pentylphenyl]acetic acid], the “In Vivo Results: effect on hematopoiesis/erythropoiesis” value in series [3] is “++++ (++++ designates greater activity than compound I)”.

For the compound `CCCCCc1ccc(C(=O)[O-])cc1.[Na+]` [Compound XII, Sodium Salt of 4-Pentylbenzoic Acid], the “In Vivo Results: effect on hematopoiesis/erythropoiesis” value in series [3] is on record as “++ (++ designates 40-70% of compound I activity)”.

As to `CCCCCCc1cccc(C(=O)[O-])c1.[Na+]` [Compound XIII, Sodium Salt of 3-Hexylbenzoic Acid], in series [3], the “In Vivo Results: effect on hematopoiesis/erythropoiesis” value is listed as “+++ (+++ designates 70 to 100% of compound I activity)”.

Regarding `CCCCc1ccc2c(c1)CC(C(=O)[O-])C2.[Na+]` (stereo not drawn) [Compound XIV, Sodium Salt of 5-Butylindan-2-carboxylc Acid], in series [3], the “In Vivo Results: effect on hematopoiesis/erythropoiesis” value is on record as “++ (++ designates 40-70% of compound I activity)”.

Regarding `O=P1(N(CCCl)CCCl)NCCCO1` (stereo not drawn) [Cyclophosphamide, reference compound], in series [3], the “Red Blood Cells (10^9)” value is on record as 5.7 10^9 and the “Red Bone Marrow Cells (10^6)” value is reported as 8.1 10^6.

`COc1cccc2c1C(=O)c1c(O)c3c(c(O)c1C2=O)C[C@@](O)(C(=O)CO)C[C@@H]3O[C@H]1C[C@H](N)[C@H](O)[C@H](C)O1` [Doxorubicin, reference compound]: in series [5] (doxorubicin 10 mg/kg iv, mice), the “increase of mRNA expression of TGF-β in kidneys” value is recorded as 73%. In addition, the “histological kidney lesions induced” value in series [7] (doxorubicin 10 mg/kg iv day 0, mice, day 7 and 11) was “significant kidney lesions”.

Take `CCCCCc1cccc(CC(=O)[O-])n1.[Na+]` [XVI]: the “In Vivo Results: effect on hematopoiesis/erythropoiesis” value in series [3] was “++ (++ designates 40-70% of compound I activity)”.

Consider `CCCC/C=C/c1cccc(CC(=O)[O-])c1.[Na+]` [XV], for which the “In Vivo Results: effect on hematopoiesis/erythropoiesis” value in series [3] is on record as “++ (++ designates 40-70% of compound I activity)”.
